What was measured:
Test in all cases: field test of gametocidal activity (sterilisation of anthers)
[1] = test system: Winterweizens Sorte Polesskaya-70; type: in vivo, Winterweizen; conditions: V. Periode, 2%ige wäßrige Emulsion, 16 kg/ha; for Prozentsatz des Ansetzens bei freier Bestäubung: control = 100
Source text: (§1) Die gametozide Aktivität der erfindungsgemäßen Sterilisationsmittel war in Feldversuch in verschiedenen bodenklimatischen Zonen mit Teilstücken von 10 m^2 Größe in drei-- bis viermaliger Wiederholung nachgewiesen. Jedes Sterilisationsmittel wurde mindestens 5 Jahre lang geprüft.
(§2) Die Entwicklung der Perioden der Organogenese wird zytologisch überwacht. Die Behandlung von Pflanzen mit dem Sterilisationsmittel erfolgt am Anfang der fünften Periode der Organogenese nach Kupermann.
(§3) Mit dem Ahrenschieben verwirklicht man die Isolierung von Hauptähren und anderen Stockwerken in Pergamentbeuteln. Bei Weizen und Tritikale werden Einzelisolatoren verwendet. Bei Roggen schließt man je 1 Ähre von 5 bis 7 verschiedenen nebeneinander befindlichen Pflanzen in einen gemeinsamen Isolator ein. Bei Hirse wird jede Rispe getrennt isoliert. Der Sterilitätsprozentsatz (X) für Weizen, Roggen, Tritikale und Hirse wird nach der Formel [formula]
(§4) Samen von unbehandelten Kontrollpflanzen ermittelt.
(§5) Die Kornzahl in nicht isolierten Ähren von Kontrollpflanzen wird bedingt für 100% Ansetzen bei freier Bestäubung angenommen.
(§6) Um zuverlässige Angaben zu erhalten, verwendet man 20 bis 25 Isolatoren jeder Wiederholung für Weizen und Tritikale, 10 bis 15 Isolatoren jeder Wiederholung für Roggen und Hirse.
Pflanzen des Winterweizens Sorte Polesskaya-70 behandelt man in der V. Periode der Organogenese durch Zerstäubund einer 2%igen wäßrigen Emulsion von Phthalsäurediäthylester, Phthalsäurediallylester, Phthalsäuredihexylester, Kaliumsalz der 2-Methyl-3-zyklohexenkarbonsäure, Ammoniumsalz der 2-Methyl-3-zyklohexenkarbonsäure mit Hilfe einer Rückenspritze. Die Emulsion enthält 0,01 Masse% Tetrahydrofuran und 0,1 Masse% C12 -C14 -Kalziumalkylbenzolsulfonat.
Der Verbrauch an Präparat beträgt 16 kg/ha. Als Kontrolle dienen Pflanzen, behandelt mit dem Verdünner ohne Sterilisationsmittel.

[2] = test system: Winterweizens Sorte Kharkovskaya 81; type: in vivo, Winterweizen; conditions: V. und VI. Periode, 2%ige wäßrige Emulsion, 12 kg/ha; for Prozentsatz des Ansetzens der Körner bei freier Bestäubung: control = 100
Source text: as §1, §2, §3, §4, §5, §6
Pflanzen des Winterweizens Sorte Kharkovskaya 81 werden in der V. und VI. Periode der Organogenese (nach Kupermann) mit einer 2%igen wäßrigen Emulsion von Natriumsalz der 2-Methyl-3-zyklohexenkarbonsäure, Phthalsäuredihexylester, Ammoniumsalz der 2-Methyl-3-zyklohexenkarbon- säure, Phthalsäuredibutylester, Phthalsäurediallylester behandelt. Die Emulsion enthält 0,01 Masse% Dodezylsulfat und 0,1 Masse% C12-C14 -Kalziumalkylbenzolsulfonat. Der Verbrauch an Präparat beträgt 12 kg/ha.
Die Prüfergebnisse sind in der Tabelle 4 angeführt. Als Kontrolle dienten Pflanzen, behandelt ähnlich wie in Beispiel 1.

[3] = test system: diploidem Roggen Sorte Kharkovskaya 55; type: in vivo; conditions: V. und VI. Periode, 1%ige wäßrige Emulsion, 6 kp/ha; for Prozentsatz des Ansetzens der Körner bei freier Bestäubung: control = 100
Source text: as §1, §2, §3, §4, §5, §6
Pflanzen von diploidem Roggen Sorte Kharkovskaya 55 werden in der V. und VI. Periode der Organogenese (nach Kupermann) mit einer 1%igen wäßrigen Emulsion von Phthalsäuredibutylester, Phthalsäurediisobutylester, Phthalsäurediallylester, Phthalsäuredihexylester, 2-Methyl-3-zyklohexen- karbonsäuremethylester, Natriumsalz der 2-Methyl-3-zyklohex- enkarbonsäure behandelt. Die Emulsion enthält 0,01 Masse% Dimethylformamid und 0,1 Masse% C12C14-Kalziumalkylbenzolsulfonat.
Der Verbrauch an Präparat beträgt 6 kp/ha. Als Kontrolle dienen Pflanzen, benandelt mit einem Verdünner ohne Sterilisationsmittel.

[4] = test system: diploidem Roggen Sorte Voskhod 2; type: in vivo; conditions: V. Periode, 1%ige wäßrige Emulsion, 10 kg/ha; for Prozentsatz des Ansetzens der Körner bei freier Bestäubung: control = 100
Source text: as §1, §2, §3, §4, §5, §6
Pflanzen von diploidem Roggen Sorte Voskhod 2 werden in der V. Periode der Organogenese (nach Kupermann) mit einer l%igen wäßrigen Emulsion von Phthalsäurediäthylester, Phthalsaurediisobutylester, Kaliumsalz der 2-Methyl-3-zyklohexen- karbonsäure, Ammoniumsalz der 2-Methyl-3-zyklohexenkarbon- säure, 2-Methyl-3-zyklohexenkarbonsäuremethylester, Phthalsaurediallylester behandelt.
Die Emulsion enthält 0,01 Masse% Dodezylsulfat und 0,1 Masse% C12-C14-Kalziumalkylbenzolsulfonat. Der Verbrauch an Präparat beträgt 10 kg/ha, Als Kontrolle dienen Pflanzen, behandelt mit einem Verdünner ohne Sterilisationsmittel.

[5] = test system: Hirse Sorte K-9693 Kormovoe I; type: in vivo; conditions: V. Periode, 1%ige wäßrige Emulsion, 8 kg/ha; for Prozentsatz des Ansetzens der Körner bei freier Bestäubung: control = 100
Source text: as §1, §2, §3, §4, §5, §6
Pflanzen der Hirse Sorte K-9693 Kormovoe I werden in der V. Periode der Organogenese (nach Kupermann) mit einer 1%igen wäßrigen Emulsion von Ammoniumsalz der 2-Methyl-3-zyklo- nexenkarbonsäure, Phthalsäuredipropylester, Phthalsäuredibutylester, Phthalsäurediisobutylester, 2-Methyl-3-zyklo- hexenkarbonsäuremethylester, Phthalsäuredihexylester behandelt. Die Emulsion enthält 0,01 Masse% Dodezylsulfat und 0,1 Masse% C12-C14-Kalziumalkylbenzolsulfonat. Der Verbrauch an Präparat beträgt 8 kg/ha. Als Kontrolle dienen Pflanzen, behandelt mit einem Verdünner ohne Sterilisationsmittel. Die Prüfergebnisse sind in der Tabelle 18 angeführt. […] Periode der Organogenese erhalten.

CCOC(=O)c1ccccc1C(=O)OCC [Beispiel 9, Phthalsäurediäthylester]
Kornzahl der Ähre bei freier Bestäubung [1]: 36,8 | Kornzahl der Ähre im Isolator [1]: 0,2 | Prozentsatz der Sterilität [1]: 99,4% | Prozentsatz des Ansetzens bei freier Bestäubung [1]: 97,4%

C=CCOC(=O)c1ccccc1C(=O)OCC=C [Beispiel 10, Phthalsäurediallylester]
Kornzahl der Ähre bei freier Bestäubung [1]: 35,6 | Kornzahl der Ähre im Isolator [1]: 6,2 | Prozentsatz der Sterilität [1]: 82,0% | Prozentsatz des Ansetzens bei freier Bestäubung [1]: 94,1%

CCCCCCOC(=O)c1ccccc1C(=O)OCCCCCC [Beispiel 11, Phthalsäuredihexylester]
Kornzahl der Ähre bei freier Bestäubung [1]: 36,0 | Kornzahl der Ähre im Isolator [1]: 0,1 | Prozentsatz der Sterilität [1]: 99,7% | Prozentsatz des Ansetzens bei freier Bestäubung [1]: 95,2%

CC1C=CCCC1C(=O)[O-].[K+] (stereo not drawn) [Beispiel 12, Kaliumsalz der 2-Methyl-3-zyklohexenkarbonsäure]
Kornzahl der Ähre bei freier Bestäubung [1]: 35,8 | Kornzahl der Ähre im Isolator [1]: 0,0 | Prozentsatz der Sterilität [1]: 100,0% | Prozentsatz des Ansetzens bei freier Bestäubung [1]: 94,7%

CC1C=CCCC1C(=O)O.N (stereo not drawn) [Beispiel 13, Ammoniumsalz der 2-Methyl-3-zyklohexenkarbonsäure]
Kornzahl der Ähre bei freier Bestäubung [1]: 36,9 | Kornzahl der Ähre im Isolator [1]: 3,7 | Prozentsatz der Sterilität [1]: 89,2% | Prozentsatz des Ansetzens bei freier Bestäubung [1]: 97,6%

CC1C=CCCC1C(=O)[O-].[Na+] (stereo not drawn) [Beispiel 18, Natriumsalz der 2-Methyl-3-zyklohexenkarbonsäure]
Kornzahl der Ähre bei freier Bestäubung [2]: 32,6 | Kornzahl der Ähre im Isolator [2]: 0,2 | Prozentsatz der Sterilität [2]: 99,4% | Prozentsatz des Ansetzens der Körner bei freier Bestäubung [2]: 96,2%

CCCCCCOC(=O)c1ccccc1C(=O)OCCCCCC [Beispiel 19, Phthalsäuredihexylester]
Kornzahl der Ähre bei freier Bestäubung [2]: 30,8 | Kornzahl der Ähre im Isolator [2]: 0,0 | Prozentsatz der Sterilität [2]: 100,0% | Prozentsatz des Ansetzens der Körner bei freier Bestäubung [2]: 90,8%

CC(C)COC(=O)c1ccccc1C(=O)OCC(C)C [Beispiel 69, Phthalsäurediisobutylester]
Kornzahl der Ähre bei freier Bestäubung [3]: 50,8 | Kornzahl der Ähre im Isolator [3]: 0,2 | Prozentsatz der Sterilität [3]: 99,6% | Prozentsatz des Ansetzens der Körner bei freier Bestäubung [3]: 96,9%

C=CCOC(=O)c1ccccc1C(=O)OCC=C [Beispiel 70, Phthalsäurediallylester]
Kornzahl der Ähre bei freier Bestäubung [3]: 51,2 | Kornzahl der Ähre im Isolator [3]: 0,1 | Prozentsatz der Sterilität [3]: 99,8% | Prozentsatz des Ansetzens der Körner bei freier Bestäubung [3]: 97,7%

CCCCCCOC(=O)c1ccccc1C(=O)OCCCCCC [Beispiel 71, Phthalsäuredihexylester]
Kornzahl der Ähre bei freier Bestäubung [3]: 49,7 | Kornzahl der Ähre im Isolator [3]: 0,0 | Prozentsatz der Sterilität [3]: 100,0% | Prozentsatz des Ansetzens der Körner bei freier Bestäubung [3]: 94,8%

COC(=O)C1CCC=CC1C (stereo not drawn) [Beispiel 72, 2-Methyl-3-zyklohexen-karbonsäuremethylester]
Kornzahl der Ähre bei freier Bestäubung [3]: 48,0 | Kornzahl der Ähre im Isolator [3]: 0,0 | Prozentsatz der Sterilität [3]: 100,0% | Prozentsatz des Ansetzens der Körner bei freier Bestäubung [3]: 91,6%

CC1C=CCCC1C(=O)O (stereo not drawn) [Beispiel 73, Natriumsalz der 2-Methyl-3-zyklohex-enkarbonsäure]
Kornzahl der Ähre bei freier Bestäubung [3]: 50,1 | Kornzahl der Ähre im Isolator [3]: 0,0 | Prozentsatz der Sterilität [3]: 100,0% | Prozentsatz des Ansetzens der Körner bei freier Bestäubung [3]: 95,6%

CCOC(=O)c1ccccc1C(=O)OCC [Beispiel 76, Phthalsäurediäthylester]
Kornzahl der Ähre bei freier Bestäubung [4]: 53,4 | Kornzahl der Ähre im Isolator [4]: 0,2 | Prozentsatz der Sterilität [4]: 99,6% | Prozentsatz des Ansetzens der Körner bei freier Bestäubung [4]: 97,8%

CC(C)COC(=O)c1ccccc1C(=O)OCC(C)C [Beispiel 77, Phthalsaurediisobutylester]
Kornzahl der Ähre bei freier Bestäubung [4]: 52,8 | Kornzahl der Ähre im Isolator [4]: 0,0 | Prozentsatz der Sterilität [4]: 100,0% | Prozentsatz des Ansetzens der Körner bei freier Bestäubung [4]: 96,7%

CC1C=CCCC1C(=O)O (stereo not drawn) [Beispiel 78, Kaliumsalz der 2-Methyl-3-zyklohexen-karbonsäure]
Kornzahl der Ähre bei freier Bestäubung [4]: 52,2 | Kornzahl der Ähre im Isolator [4]: 0,1 | Prozentsatz der Sterilität [4]: 99,8% | Prozentsatz des Ansetzens der Körner bei freier Bestäubung [4]: 95,6%

CC1C=CCCC1C(=O)O (stereo not drawn) [Beispiel 79, Ammoniumsalz der 2-Methyl-3-zyklohexenkarbon-säure]
Kornzahl der Ähre bei freier Bestäubung [4]: 51,7 | Kornzahl der Ähre im Isolator [4]: 0,0 | Prozentsatz der Sterilität [4]: 100,0% | Prozentsatz des Ansetzens der Körner bei freier Bestäubung [4]: 95,0%

COC(=O)C1CCC=CC1C (stereo not drawn) [Beispiel 80, 2-Methyl-3-zyklohexenkarbonsäuremethylester]
Kornzahl der Ähre bei freier Bestäubung [4]: 50,2 | Kornzahl der Ähre im Isolator [4]: 0,0 | Prozentsatz der Sterilität [4]: 100,0% | Prozentsatz des Ansetzens der Körner bei freier Bestäubung [4]: 91,9%

C=CCOC(=O)c1ccccc1C(=O)OCC=C [Beispiel 81, Phthalsaurediallylester]
Kornzahl der Ähre bei freier Bestäubung [4]: 53,5 | Kornzahl der Ähre im Isolator [4]: 0,8 | Prozentsatz der Sterilität [4]: 98,4% | Prozentsatz des Ansetzens der Körner bei freier Bestäubung [4]: 97,9%

CC1C=CCCC1C(=O)O.N (stereo not drawn) [Beispiel 97, Ammoniumsalz der 2-Methyl-3-zyklo-nexenkarbonsäure]
Kornzahl der Rispe bei freier Bestäubung [5]: 121,6 | Kornzahl der Rispe im Isolator [5]: 0,0 | Prozentsatz der Sterilität [5]: 100,0% | Prozentsatz des Ansetzens der Körner bei freier Bestäubung [5]: 82,9%

CCCOC(=O)c1ccccc1C(=O)OCCC [Beispiel 98, Phthalsäuredipropylester]
Kornzahl der Rispe bei freier Bestäubung [5]: 130,7 | Kornzahl der Rispe im Isolator [5]: 0,0 | Prozentsatz der Sterilität [5]: 100,0% | Prozentsatz des Ansetzens der Körner bei freier Bestäubung [5]: 89,1%

CCCCOC(=O)c1ccccc1C(=O)OCCCC [Beispiel 99, Phthalsäuredibutylester]
Kornzahl der Rispe bei freier Bestäubung [5]: 127,9 | Kornzahl der Rispe im Isolator [5]: 0,0 | Prozentsatz der Sterilität [5]: 100,0% | Prozentsatz des Ansetzens der Körner bei freier Bestäubung [5]: 87,9%

CC(C)COC(=O)c1ccccc1C(=O)OCC(C)C [Beispiel 100, Phthalsäurediisobutylester]
Kornzahl der Rispe bei freier Bestäubung [5]: 110,4 | Kornzahl der Rispe im Isolator [5]: 0,0 | Prozentsatz der Sterilität [5]: 100,0% | Prozentsatz des Ansetzens der Körner bei freier Bestäubung [5]: 75,3%

COC(=O)C1CCC=CC1C (stereo not drawn) [Beispiel 101, 2-Methyl-3-zyklo-hexenkarbonsäuremethylester]
Kornzahl der Rispe bei freier Bestäubung [5]: 127,8 | Kornzahl der Rispe im Isolator [5]: 0,0 | Prozentsatz der Sterilität [5]: 100,0% | Prozentsatz des Ansetzens der Körner bei freier Bestäubung [5]: 87,1%

CCCCCCOC(=O)c1ccccc1C(=O)OCCCCCC [Beispiel 102, Phthalsäuredihexylester]
Kornzahl der Rispe bei freier Bestäubung [5]: 136,6 | Kornzahl der Rispe im Isolator [5]: 0,0 | Prozentsatz der Sterilität [5]: 100,0% | Prozentsatz des Ansetzens der Körner bei freier Bestäubung [5]: 93,1%
